# Key:
# [1] = system: Lung fibroblasts from patients with IPF; test: Sircol collagen assay, TGF-β stimulated IPF lung fibroblasts; assay type: cell-based, human; conditions: Omeprazole 50 or 100 μM; L-257 50 μM; A83-01 20 μM; 24 hours
# Description: Cells were seeded at 4×10^4 cells/well in a 6-well plate (1.2 mL media per well) and incubated overnight at 37° C./5% CO2. The next day, the conditioned media was aspirated and the cells were rinsed with phosphate-buffered saline (PBS) prior to (fetal bovine) serum starving them for 2 hours followed by 22 hours low serum (0.1% fetal bovine serum; FBS) in order to synchronize them.
# On day-3, the cells were stimulated with fully-supplemented media (containing 10% FBS) in the absence or presence of recombinant transforming growth factor-1 (TGF-β1) (at 10 ng/mL final conc) in the presence of a DDAH inhibitor (DDAHi; the proton pump inhibitor (PPI) lansoprazole at a final concentration of 20 μM) or vehicle for 24 hours.
# The acid-soluble collagen content in each well was determined in the conditioned media using the Sircol collagen assay (Accurate Chemical and Scientific Corp; CLRS 1000) following the recommended protocol.
# The amount of collagen in each well was estimated from a standard curve and the collagen content in each sample was normalized to total cellular protein from the respective well and was expressed as μg collagen per milligram of protein.
# Lung fibroblasts were isolated from patients diagnosed with IPF according to International Standards. Isolated fibroblasts were seeded at 6×10^4 and synchronized the following day.
# The acid-soluble collagen content was determined using the Sircol collagen assay (Accurate Chemical and Scientific Corp; CLRS 1000) following the recommended protocol.
# [2] = system: human microvascular endothelial cells (HMEC-1); test: Intracellular ADMA by ELISA in endothelial cells; assay type: cell-based; conditions: 20 μM, 24 hours, compared to vehicle control
# Description: (§1) First, human microvascular endothelial cells (HMEC-1; ATCC) were seeded in 75 cm^2 cell culture flasks and cultured in fully supplemented DMEM (Invitrogen cat #11995; supplemented with 10% fetal bovine serum (FBS), 4 mM HEPES; GIBCO 15630 and penicillin/streptomycin). The cells were incubated at 37° C./5% CO2 until ˜60% confluency. The cells were then washed with phosphate buffered saline (PBS) and plain DMEM (DMEM with no addition of serum or the other supplements) was mixed with esomeprazole (20 μM final concentration from 100 mM stock) and added to the cells. […] After ˜4 hrs of incubation, the media was aspirated from each flask and the cells were cultured in fully supplemented DMEM as described above and incubated at 37° C./5% CO2 for another 20 hrs. The serum was initially withdrawn due to the possibility that esomeprazole would interact with Cys containing serum proteins and fail to internalize at effective concentrations.
# After 24 hrs, the cells were harvested. Total cellular protein was estimated as described and ADMA was measured by enzyme-linked immunosorbent assay (ELISA) following the manufacturer's recommendations; DLD Diagnostika, Hamburg, Germany).
# as §1, with “FBS,” for “fetal bovine serum (FBS),”, “PBS” for “phosphate buffered saline (PBS)”, “PD 404” for “esomeprazole”, “conc” for “concentration”, “The serum was initially withdrawn due to the possibility that esomeprazole would interact with Cys containing serum proteins and fail to internalize at effective concentrations.” left out
# After 24 hours, the cells were harvested. Total cellular protein was estimated as described and ADMA was measured by ELISA following the manufacturer's recommendations; DLD Diagnostika, Hamburg, Germany).
# [3] = system: Human lung epithelial cell line (A-549); test: BrdU Cell Proliferation Assay, human alveolar epithelial cells; assay type: cell-based; conditions: FIG. 24
# Description: Cells were seeded at 5×10^3 cells/well in a 96-well plate (200 μL media per well) & incubated overnight at 37° C./5% CO2. The next day, the conditioned media was aspirated and the cells were PBS-rinsed prior to (fetal bovine) serum starving them for 2 hours followed by 22 hours low serum (0.1% FBS) in order to synchronize them.
# On day-3, 2 hours before the end of the 24 hours low serum period, DDAH inhibitors (Proton pump inhibitors; PPIs) were added in a 100 μL solution of 0.1% FBS DMEM. The following DDAH inhibitors were used: Lansoprazole; Esomeprazole; and Rabeprazole. A “vehicle only” sample served as a “no DDAH” control. In addition, Media only (blank control) without cells, and Cells only (background control) were included in the assay. Two hours later, 100 μL of DMEM containing 10% FBS was added to each well in order to serum-stimulate (for 24 hours) the cells and make the total well content to 200 μL. Four hours prior to the end of the 24 hrs, 20 μL of 1:500 diluted Bromodeoxyuridine (BrdU) (diluted in fully-supplemented DMEM) was added to all wells except the “Cells only” control wells.
# The incorporation of BrdU into newly synthesized DNA by actively proliferating cells was detected immunochemically using an Antibody directed against BrdU using the recommended protocol and the BrdU Cell Proliferation Assay kit (Millipore; Cat #2750). […]
# [4] = system: mouse alveolar epithelial cell; test: BrdU Cell Proliferation Assay, mouse alveolar epithelial cells; assay type: cell-based; conditions: mouse cell line, FIG. 25
# Description: A “vehicle only” sample served as a “no DDAH” control.
# [5] = molecular target: T1, human DDAH1 (Homo sapiens (Human), UniProt O94760); test: Fluorimetric CPM assay of DDAH activity (SMTC substrate); assay type: biochemical; conditions: for inhibition of DDAH activity, CPM fluorometric validation: fresh powders from vendors, vs vehicle
# T1 sequence (O94760 whole entry): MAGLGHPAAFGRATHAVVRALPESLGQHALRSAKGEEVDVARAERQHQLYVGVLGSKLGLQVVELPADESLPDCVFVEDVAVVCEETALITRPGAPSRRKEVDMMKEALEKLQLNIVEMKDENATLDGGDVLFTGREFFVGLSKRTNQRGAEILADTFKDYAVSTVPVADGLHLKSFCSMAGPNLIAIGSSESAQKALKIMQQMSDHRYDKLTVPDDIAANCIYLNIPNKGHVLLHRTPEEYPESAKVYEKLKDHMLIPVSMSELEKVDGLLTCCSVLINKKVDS
# Description: (§2) The activity of human DDAH1 was quantified using fluorimetric assay by incubating the enzyme with an artificial substrate S-methyl-thiocitrulline (SMTC). DDAH metabolizes SMTC into L-citrulline and methanethiol (CH3—SH). The thiol released from the reaction can be monitored fluorimetrically by adding 7-Diethylamino-3-(4-maleimidophenyl)-4-methylcoumarin (CPM).
# as §2, with “(SMTC), as described in Example 1.” for “(SMTC).”
# For the secondary assay, a fluorimetric assay that uses SMTC as a substrate was adapted. DDAH metabolizes SMTC into L-citrulline and methanethiol (CH3—SH). In brief, DDAH (30 nM final concentration) was mixed with SMTC (100 μM final concentration), CPM (50 μM final concentration) and screening buffer (containing a final concentration of 0.01% Triton-X100 and 1 mM EDTA). The reaction mix was added to black 384-well plates to validate primary hits that modulate DDAH activity. The release of CH3—SH was monitored fluorimetrically by adding 7-Diethylamino-3-(4-maleimidophenyl)-4-methylcoumarin (CPM) as described in Linsky (Linsky, T. & Fast, W. A continuous, fluorescent, high-throughput assay for human dimethylarginine dimethylaminohydrolase-1. J Biomol Screen 16, 1089-1097 (2011)).
# [6] = molecular target: DDAH (Homo sapiens (Human), UniProt O94760); test: Dilution assay for reversibility of DDAH inhibition (fluorometric); assay type: biochemical
# Sequence of DDAH (O94760 whole entry): as above
# Description: In order to understand the mechanism by which PPIs inhibit DDAH activity and to determine whether the inhibition mechanism is reversible, a dilution study was conducted, in which DDAH (at a 100-fold excess to the final concentration used) was pre-incubated with excess PPI (100×, 10× or 1× the IC50 value) and then inhibition of enzymatic activity was determined using a fluorometric assay as described above. For a reversible inhibitor that binds to a single site of an enzyme (1:1 stoichiometry), it is anticipated that inhibition can be saturated.
# [7] = system: human lung epithelial cells (A-549); test: Intracellular ADMA by ELISA in lung epithelial cells; assay type: cell-based; conditions: Omeprazole at 10, 20, 50 or 100 μM, 24 hours
# Description: After 24 hours, ADMA was measured by enzyme-linked immunosorbent assay (ELISA). […] Data are Mean±SEM from duplicate experiments. *p<0.05 compared to vehicle (“Veh”).
# [8] = system: human alveolar epithelial cells (A-549); test: Nitric oxide production, total nitrite (NOx) by Griess reaction; assay type: cell-based; conditions: 24 hours
# Description: Total nitrite (NOx) was measured using Griess reaction. Data are Mean±SEM from duplicate experiments. *p<0.05.
# [9] = system: human alveolar epithelial cells (A-549); test: Apoptosis, Cell Death Detection ELISA, A23187-induced; assay type: cell-based; conditions: 1 μM A23187, 24 hours
# Description: Apoptosis as measured by mono- and oligo-nucleosome enrichment was determined using Cell Death Detection ELISA^PLUS (Roche). Histone-DNA complex (His-DNA CPx) was included as a control. […] Data shown are Mean+/-SEM from Duplicate Experiments. * p<0.05.
# [10] = system: human alveolar epithelial cells (A-549)
# Description: (§3) Cytotoxicity of PPIs. […] Mean+/−SEM from Duplicate Experiments. * p<0.05.
# [11] = system: mouse alveolar epithelial (MLE-12) cells
# Description: as §3
# [12] = molecular target: T1, human DDAH1; test: Time-dependence kinetics study of DDAH inhibition; assay type: biochemical
Compound,TGF-β induced collagen synthesis [1],incorporation of BrdU [3],incorporation of BrdU [4],"inhibition of DDAH activity, CPM fluorometric validation [5]",mode of inhibition in time-dependence kinetics [12],further results
Cc1cccc(-c2nn(C(=S)Nc3ccccc3)cc2-c2ccnc3ccccc23)n1 [A83-01],reduced TGF-β induced collagen synthesis,,,,,
COCCNC(N)=NCCC[C@H](N)C(=O)O [L-257],reduced TGF-β induced collagen synthesis,reduced incorporation of BrdU,reduced incorporation of BrdU,,,increase in intracellular ADMA [2]: 68%
COc1ccc2[nH]c([S+]([O-])Cc3ncc(C)c(OC)c3C)nc2c1 (centres unmarked) [Omeprazole],reduced TGF-β induced collagen synthesis,reduced incorporation of BrdU,reduced incorporation of BrdU,inhibited DDAH activity significantly,,"reversibility of DDAH inhibition upon dilution ([6]; pre-incubation with 100×, 10× or 1× the IC50 value): reversible inhibition of DDAH; IC50 ([6]; value given in FIG. 20 legend): ~60 µM; intracellular ADMA [7]: increase in intracellular ADMA; levels of nitric oxide (total nitrite, NOx) [8]: reduced the levels of nitric oxide; level of apoptosis (mono- and oligo-nucleosome enrichment) [9]: reduced the level of apoptosis; concentration up to which not cytotoxic (LDH release) [10]: ≥ 300 µM; concentration up to which cytotoxicity not observed (LDH release) [11]: ≥ 300 µM"
"O=C(O)c1cc[c]([Hg][Cl])cc1 [chloromercuribenzoate, 4-chloromercuribenzoic acid, reference compound]",,,,confirmed known DDAH inhibitors,progressive inhibition,
CC(=O)[O-].[Hg+][c]1ccccc1 [phenylmercuric acetate],,,,,progressive inhibition,IC50 [5]: < 0.78 µM
